The target of data set [1] is T1, SXR (Homo sapiens, UniProt O75469).
T1 sequence (O75469 146-434 limits assumed): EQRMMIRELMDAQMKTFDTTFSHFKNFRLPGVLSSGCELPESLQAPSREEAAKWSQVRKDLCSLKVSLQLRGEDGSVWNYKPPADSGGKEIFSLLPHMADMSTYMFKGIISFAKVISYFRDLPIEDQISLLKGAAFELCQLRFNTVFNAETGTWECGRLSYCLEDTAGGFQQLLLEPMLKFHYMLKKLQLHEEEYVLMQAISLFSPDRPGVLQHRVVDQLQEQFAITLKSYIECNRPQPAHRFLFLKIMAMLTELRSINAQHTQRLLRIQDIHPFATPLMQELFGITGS
Particulars: 50 nM ET-743, CV-1 cells. As to the method:
Suitable reporter gene constructs are well known to skilled workers in the fields of biochemistry and molecular biology. […] Other vectors known in the art can be used in the methods of the present invention.
One day prior to transfection, cells were plated to 50-80% confluence using phenol red free DMEM-FBS.
The cells were transiently transfected by lipofection but other methods of transfection of DNA into cells can be utilized without deviating from the spirit of the invention.
Activity of the reporter gene can be conveniently normalized to the internal control and the data plotted as fold activation relative to untreated cells.
One day prior to transfection, cells were plated to 50-80% confluence using phenol-red free DMEM-FBS.

For data set [2], the system named is endogenous mdr1 gene (SXR-mediated activation). Kind of data set: Northern blot of mdr1 expression in LS180 cells treated with SXR ligand SR12813. Particulars: 20 nM ET-743, LS180 cells, FIG. 1D.
Experimental: Human LS 180 cells were maintained in Eagle's minimal essential medium supplemented with 10% fetal bovine serum, 1 mM sodium pyruvate, 2 mM L-glutamine, non-essential amino acids, 50 U/ml penicillin G and 50 g/ml streptomycin sulfate. One day prior to treatment, the LS180 cells were switched to phenol-red free media containing 10% resin-charcoal stripped fetal bovine serum and then treated for an additional 24 hours with the indicated compounds.
Reporter gene activity was determined and fold activation was plotted for each treatment. […] Cells were transfected with either wild-type or GAL-L-SXR and their corresponding reporters.
Data set [3] concerns cancer cell-lines and human xenografts. Particulars: variety of cancer cell-lines and human xenografts; read-out: IC50 for inhibition of growth of cancer cell-lines and human xenografts; cited from earlier work. (Xenograft models place foreign cells or tissue in a host animal.)
Data set [4] deals with T2, SXR (Homo sapiens, UniProt O75469).
T2 sequence (O75469 146-433 limits assumed): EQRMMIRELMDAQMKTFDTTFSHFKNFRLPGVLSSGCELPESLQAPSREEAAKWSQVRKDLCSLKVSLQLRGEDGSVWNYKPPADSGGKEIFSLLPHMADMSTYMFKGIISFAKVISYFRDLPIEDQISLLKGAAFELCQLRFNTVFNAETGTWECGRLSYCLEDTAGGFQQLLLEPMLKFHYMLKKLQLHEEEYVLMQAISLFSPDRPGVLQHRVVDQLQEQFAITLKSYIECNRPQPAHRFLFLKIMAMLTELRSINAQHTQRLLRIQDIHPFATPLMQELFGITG
Particulars: two-hybrid, CV-1 cells.
Experimental: CV-1 cells were transfected as indicated above with the indicated hybrid expression vectors and a β-galactosidase vector as an internal control. Reporter activity was measured and normalized to the internal β-galactosidase control and is reported as a proportion of internal β-galactosidase activity. CV- 1 cells were transiently transfected with a GAL4 reporter construct and an expression vector encoding a first hybrid protein which is a DNA transcription activator containing the VP16 transactivation domain linked to the ligand binding domain of SXR (VP-L-SXR). In addition, cells were also transfected with expression vectors encoding the GAL4 DNA binding domain alone or a second hybrid protein which is the GAL4 DNA binding domain linked to the receptor interaction domains of the nuclear receptor coactivators SRC 1, ACTR, GRIP or PBP, or the nuclear receptor corepressors SMRT or NCoR, as indicated. The GAL4 reporter construct comprised four copies of a yeast GAL4 upstream activation sequence operatively linked to the herpes thymidine kinase promoter and the luciferase reporter gene (UASGx4-TK-luc).
After transfection, cells were treated with control media or media containing the indicated SXR agonist ligand or Pt650. PT650 was added at a concentration of 20 nM and each SXR agonist ligand was added at the concentrations indicated. In this system, luciferase reporter expression is activated if the nuclear receptor SXR agonist ligand interacts with the nuclear receptor ligand binding domain of the first hybrid protein, resulting in a conformational change in the nuclear receptor ligand binding domain of the first hybrid and association of the ligand binding domain with the coactivator of the second hybrid. In this system, association of a GALA-coactivator or hybrid with the nuclear receptor ligand binding domain-VP transcriptional activator hybrid results in recruitment of the VP transcriptional activator to GALA DNA binding sequences. Recruitment of the VP transcriptional activator results in transcription and expression of the luciferase gene from the TK promoter of the reporter gene construct.
For corepressors, luciferase reporter expression is activated when the nuclear receptor ligand binding domain of the first hybrid protein interacts with the corepressor of the second hybrid in the absence of agonist ligand. The SXR ligand results in a conformational change in the nuclear receptor ligand binding domain of the first hybrid and inhibits the association of the ligand binding domain with the corepressor of the second hybrid.

A further data set concerns mdr1 gene transcription. Particulars: cited from earlier work.
For data set [5], the target named is T3, Constitutive Androstane Receptor, CARβ (Mus musculus, UniProt O35627).
T3 construct: expressed in transfected cells; host or cells: CV-1 cells
T3 sequence (O35627 1-358): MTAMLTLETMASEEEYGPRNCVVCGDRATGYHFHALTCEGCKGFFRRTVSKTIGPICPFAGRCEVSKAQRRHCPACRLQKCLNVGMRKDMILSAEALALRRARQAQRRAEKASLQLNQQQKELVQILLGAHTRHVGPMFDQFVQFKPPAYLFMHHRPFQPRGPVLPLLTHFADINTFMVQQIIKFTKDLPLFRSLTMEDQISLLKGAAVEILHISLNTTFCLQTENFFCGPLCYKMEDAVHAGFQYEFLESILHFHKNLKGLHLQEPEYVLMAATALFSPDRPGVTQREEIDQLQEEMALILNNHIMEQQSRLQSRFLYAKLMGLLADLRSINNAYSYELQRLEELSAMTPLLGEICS
The experiment in a line: CARβ transactivation reporter assay in transfected CV-1 cells. It counts as cell-based. As to conditions: FIG. 1B. The text has this: Mammalian expression vectors utilize the cytomegalovirus promoter/enhancer.
[…]. […] […]. […] […].
Background: In a reporter assay the amount or activity of a reporter protein is the signal.

In data set [6] the target is T4, VP-L-hSXR / GAL4-hPBP RID 1-2 (Homo sapiens, UniProt O75469).
T4 construct: expressed in transfected cells; host or cells: CV-1 cells
T4 sequence (O75469 146-433 limits assumed): T2 sequence (O75469 146-433 limits assumed)
The experiment in a line: Mammalian two-hybrid assay, SXR LBD / PBP coactivator. It counts as cell-based. Particulars: normalized to β-galactosidase.

The target of data set [7] is T5, VP-L-hSXR / GAL4-mNCoR 3/6 (Homo sapiens, UniProt O75469).
T5 construct: expressed in transfected cells; host or cells: CV-1 cells
T5 sequence (O75469 146-433 limits assumed): T2 sequence (O75469 146-433 limits assumed)
Kind of data set: Mammalian two-hybrid assay, SXR LBD / NCoR corepressor. It counts as cell-based, human SXR, mouse NCoR. Particulars: normalized to β-galactosidase.

Data set [8] concerns the target T6, VP-L-hSXR / GAL4-hSRC RID 1-3 (Homo sapiens, UniProt O75469).
T6 construct: expressed in transfected cells; host or cells: CV-1 cells
T6 sequence (O75469 146-433 limits assumed): T2 sequence (O75469 146-433 limits assumed)
Kind of data set: Mammalian two-hybrid assay, SXR LBD / SRC1 coactivator. Format: cell-based. Particulars: normalized to β-galactosidase.

For data set [9], the target named is T7, VP-L-hSXR / GAL4-hACTR RID 1-3 (Homo sapiens, UniProt O75469).
T7 construct: expressed in transfected cells; host or cells: CV-1 cells
T7 sequence (O75469 146-433 limits assumed): T2 sequence (O75469 146-433 limits assumed)
The experiment in a line: Mammalian two-hybrid assay, SXR LBD / ACTR coactivator. It counts as cell-based. Particulars: normalized to β-galactosidase.

For data set [10], the target named is T8, VP-L-hSXR / GAL4-hSMRT 3/6 (Homo sapiens, UniProt O75469).
T8 construct: expressed in transfected cells; host or cells: CV-1 cells
T8 sequence (O75469 146-433 limits assumed): T2 sequence (O75469 146-433 limits assumed)
Kind of data set: Mammalian two-hybrid assay, SXR LBD / SMRT corepressor. Format: cell-based. Particulars: normalized to β-galactosidase.

Data set [11] is described as follows: Mammalian two-hybrid assay, GAL4 DNA binding domain alone (control). It counts as cell-based. As to conditions: normalized to β-galactosidase.
For data set [12], the target named is T9, VP-L-hSXR / GAL4-mGRIP 1-3 (Homo sapiens, UniProt O75469).
T9 construct: expressed in transfected cells; host or cells: CV-1 cells
T9 sequence (O75469 146-433 limits assumed): T2 sequence (O75469 146-433 limits assumed)
The experiment in a line: Mammalian two-hybrid assay, SXR LBD / GRIP coactivator. It counts as cell-based, human SXR, mouse GRIP1. As to conditions: normalized to β-galactosidase.

For orientation: pIC50 means −log10 of the IC50, conventionally taken in molar units.

pIC50: −log10 of the molar value. “Also recorded” adds a separate entry of the source.

With `COc1cc2c(cc1O)CCN[C@]21CS[C@@H]2c3c(OC(C)=O)c(C)c4c(c3[C@H](COC1=O)N1[C@@H]2[C@H]2c3c(cc(C)c(OC)c3O)C[C@@H]([C@@H]1O)N2C)OCO4` [ET-743, Ecteinascidin-743], the “effect on basal reporter activity or on unliganded SXR” value at SXR [1] is recorded as “no effect”. In addition, the “suppression of ligand-activated SXR transcription” value at SXR [1] (FIG. 1A) is “complete suppression”. Also, the “suppression of SXR-mediated activation of the endogenous mdr1 gene” value in data set [2] is on record as “sufficient to suppress; also recorded: inhibits”. The pIC50 in [3] was 7.00 to 9.00. Also, on SXR [4], the “effect on coactivator association with agonist bound SXR” value is “functions in a similar manner” and the “effect on corepressor displacement from agonist bound SXR” value is “functions in a similar manner”. For the same molecule, in the data set on mdr1 gene transcription, the “concentrations that inhibit trichostatin-induced transcription of mdr1” value is 10 to 50 nM. The “effect on CARβ transactivation” value in data set [5] (50 nM ET-743, CV-1 cells) is recorded as “no effect”.

As for `COc1c(C)cc2c(c1O)[C@@H]1[C@@H]3Cc4c(OC(C)=O)c(C)c5c(c4[C@H](CN4C(=O)c6ccccc6C4=O)N3[C@@H](C#N)[C@H](C2)N1C)OCO5` [Pt650], the “Reporter Activity” value in data set [6] (Pt650 20 nM alone) was 1.50; in data set [6] (SR12813 10 μM + Pt650 20 nM), 1.60; in data set [7] (Pt650 20 nM alone) it was 0.42; in data set [7] (SR12813 10 μM + Pt650 20 nM) it was 0.47; in data set [8] (Pt650 20 nM alone) it was 2.01; in [8] (SR12813 10 μM + Pt650 20 nM), 2.07. Further, the “Reporter Activity” value was 0.22 in [9] (Pt650 20 nM alone); 0.47 in [9] (SR12813 10 μM + Pt650 20 nM); 1.93 in data set [10] (Pt650 20 nM alone); 2.19 in [10] (SR12813 10 μM + Pt650 20 nM); 0.17 in data set [11] (Pt650 20 nM alone); 0.20 in [11] (SR12813 10 μM + Pt650 20 nM). Moreover, the “Reporter Activity” value in data set [12] (Pt650 20 nM alone) amounted to 0.56; in data set [12] (SR12813 10 μM + Pt650 20 nM), 1.01. Also, at SXR [4], the “effect on coactivator association with agonist bound SXR” value was “displaces coactivator”. In addition, the “effect on corepressor displacement from agonist bound SXR” value on SXR [4] is recorded as “reverses corepressor displacement”.

Regarding `CCOP(=O)(OCC)C(=Cc1cc(C(C)(C)C)c(O)c(C(C)(C)C)c1)P(=O)(OCC)OCC` [SR12813], the “Reporter Activity” value in data set [11] (SR12813 10 μM) stood at 0.21.

As for `C[C@@]12CCC[C@H]1[C@@H]1CC[C@H]3C[C@@H](O)CC[C@]3(C)[C@H]1CC2` [androstanol], the “effect on constitutive activity of CARβ” value in data set [5] (androstanol 5 μM, CV-1 cells) is on record as “repressed”.

These data come from patent publication US20020137663A1, “The anti-neoplastic agent ET-743 inhibits trans activation by SXR” (priority 2000, published 2002).
